Experimental data: patent US12673039B2, “Methods of inducing autophagy using coumarin derivatives and related compounds” (Buck Institute for Research on Aging, priority 2019, dated 2026)

Test system: AM141 worm
Assay: polyQ40 aggregation in AM141 worms
Format: in vivo, C. elegans
Settings: dose dependent
Description: FIG. 21, panels A-F: AIC106 prevents neuronal loss and proteotoxicity in strains expressing human neurotoxic proteins. Panel A) Dopaminergic neuronal loss in day-5 UA44 worms was quantified by scoring percentage of worms with intact 4-CEP neurons in AIC106 and DMSO-control treatment. [N=3 independent experiments (mean±SD). ***p<0.001, by one-way ANOVA with Tukey's multiple comparisons test]. Motor function in (panel B) day-7 NL5901 and (panel C) day-5 CL2006 worms were quantified by scoring number of thrashes for an individual worm over the period of 30 seconds (dots) in AIC106 and DMSO-control treatment. […] Panel D) Motor function in temperature sensitive (enhanced paralysis at 25° C.) CL4176 worms was determined by scoring percent of worms paralyzed in AIC106 and DMSO-control treatment. […] P-value calculated by Logrank test]. Panel F) Effect of AIC106 on polyQ40 aggregation was determined by scoring number of polyQ40-YFP fluorescent puncta in an individual AM141 worm treated with AIC106 and DMSO-control. […]
Synchronized populations of day-1 adult worms expressing reporter GFP transgene or stained with a dye/stain (Lysotracker and TMRM) and grown at 20° C. were transferred to compound or DMSO plates. Fluorescence expression was analyzed at the time specified for each individual strain (see figure legends). […] Fluorescence intensity normalized to worm area was measured using NIH ImageJ software. […]

**Q.** How did the poly-Q40 aggregates turn out when `O=c1oc2c3c4c(cc2c2c1CCC2)CCCN4CCC3` [C1, 2,3,6,7,10,11-Hexahydro-1H,5H-cyclopenta(3,4)(1)benzopyrano(6,7,8-ij)quinolizin-12(9H)-one] was run?
**A.** significantly decreased poly-Q40 aggregates
